In patent US20260285847A1, “SYMMETRIC AMINOINDOLE-LINKED TRIAZINE FOR A DUAL EFFECT ON ALPHA-SYNUCLEIN AND TAU ISOFORM 2N4R FIBRILLIZATION” (Purdue Research Foundation, priority 2023, published 2026):
“Also recorded” adds a separate entry of the source.

Tests used:
α-syn [1] = target: T1, α-syn (Homo sapiens, UniProt P37840); assay: PICUP cross-linking assay of α-syn oligomer formation; format: biochemical; details: compound 50 μM; high molecular weight oligomers around 50 kDa
T1 construct: purchased rPeptide
Description: PICUP is a technique in which oligomer formation is induced by cross-linking. To induce oligomerization by cross-linking, α-syn (from Rpeptide, LLC) and tau isoform 2N4R were diluted in 10 mM phosphate buffer (pH 7.4) to reach a final concentration of 10 μM. Different compounds were added to the protein solution at a final concentration of 50 μM, resulting in a molar ratio of 1:5. To confirm the gradual effect of compounds on the inhibition of α-syn oligomerization, compounds were tested at final concentration of 3.125, 6.25, 12.5, 25, and 50 μM. The controls consisted of samples without light exposition, without Ru(bpy) or ammonium persulfate, and without compound (i.e., 0.125% DMSO). The cross-linking reaction was initiated by the addition of 2 μL of Ru(bpy) (300 μM final concentration) and 2 μL ammonium persulfate (6 mM final concentration).^32 Samples were irradiated immediately. Light exposure was of a 1 second duration for α-syn and a 3 second duration for tau isoform 2N4R, with a 53 W (120 V) incandescent lamp installed in a homemade dark-box. Each tube contained a final volume of 20 μL. After irradiation, 8.3 μL of Laemmli loading buffer containing 15% 0-mercaptoethanol was immediately added to the solution, followed by incubation at 95° C. for 10 min. The cross-linked samples were separated on a 16% SDS-PAGE gel and visualized by Coomassie blue staining.

α-syn [2] = target: T1, α-syn; assay: Transmission electron microscopy (TEM) of α-syn fibrils; format: biochemical; details: protein 60 μM, compound 600 μM (1:10), 24 hours at 37° C.
Description: To confirm the general anti-fibrillar effect of compound 10, transmission electron microscopy (TEM) was used as an orthogonal assay. After incubating recombinant proteins (at 60 μM) with 600 μM compound 10 for 24 hours at 37° C., TEM was utilized to detect fibril formation.^32 A volume of 10 μL was applied on a 400-mesh Formvar-carbon-coated copper grid (Electron Microscopy Sciences, Hatfield, PA). The grids were incubated for 1 minute and washed three times with distilled water. They were carefully air-dried and incubated for 1 minute in a fresh solution of 1% uranyl acetate. Samples were air-dried and observed using a transmission microscope. Visualization of the grids was performed with transmission electron microscopy (JEOL 1400 Flash, Japan). Acquisition of pictures was performed with the following settings: accelerating voltage of 100 kV and magnification of 40k.

tau isoform 2N4R [3] = target: T2, tau isoform 2N4R (Homo sapiens, UniProt P10636); assay: ThT fluorescence assay of tau isoform 2N4R fibril formation; format: biochemical; details: compound 100 μM, tau 2N4R 6 μM, heparin 1.5 μM
T2 construct: made in house; host or cells: E. coli BL21(DE3)
T2 sequence (P10636 1-441 isoform P10636-8): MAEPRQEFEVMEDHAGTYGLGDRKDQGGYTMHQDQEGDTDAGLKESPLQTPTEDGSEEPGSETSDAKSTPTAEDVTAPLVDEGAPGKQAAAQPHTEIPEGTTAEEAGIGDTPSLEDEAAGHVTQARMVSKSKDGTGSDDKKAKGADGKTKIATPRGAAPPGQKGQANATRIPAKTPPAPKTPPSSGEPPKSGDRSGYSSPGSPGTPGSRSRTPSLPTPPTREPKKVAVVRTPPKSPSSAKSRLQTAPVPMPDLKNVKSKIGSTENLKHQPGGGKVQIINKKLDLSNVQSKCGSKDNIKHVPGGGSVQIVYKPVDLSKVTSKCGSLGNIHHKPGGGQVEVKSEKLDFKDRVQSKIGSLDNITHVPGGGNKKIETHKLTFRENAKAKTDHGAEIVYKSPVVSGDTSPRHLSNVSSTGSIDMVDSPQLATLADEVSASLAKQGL
Description: (§1) Chemical and peptide source. DMSO and thioflavin-T (ThT) were purchased from Alfa Aesar (Ward Hill, MA). Procuration of recombinant α-syn was from rPeptide (WatKinsville, GA). The recombinant p-tau isoform 1N4R was prepared as published previously.^31, 36 Concerning the preparation of tau 2N4R, bacterial expression plasmid consisting of the vector pRK172 carrying a cDNA encoding the human Tau 2N4R isoform was a kind gift of Dr. David Eliezer (Weill Cornell Medicine). For protein expression, E. coli BL21(DE3) cells were transformed with the plasmid and grown in LB media supplemented with ampicillin (100 μg/mL). Protein over-expression was induced by the addition of 1 mM IPTG for 4 h at 37° C., and cells were pelleted by centrifugation at 6,000 g for 15 min at 4° C. The cells were resuspended in lysis buffer (20 mM MES, 400 mM NaCl, 0.2 mM MgCl2, 1 mM EGTA, protease inhibitor cocktail (P8340, Sigma Aldrich), 0.25 mg/mL lysozyme, and 1 μg/mL DNase I, pH 6.8) and lysed by a French press cell disruptor at 4° C., and the lysate was boiled for 20 min. Denatured proteins were pelleted by centrifugation at 30,000 g for 30 min at 4° C., and the supernatant was dialyzed overnight against cation exchange buffer (20 mM MES, 50 mM NaCl, 1 mM MgCl2, 1 mM EGTA, 2 mM DTT, 0.1 mM PMSF, pH 6.8). The dialysate was loaded onto a HiPrep SP HP column, and proteins were eluted with a linear gradient ranging from 50 mM to 1 M NaCl. Fractions containing tau isoform 2N4R were pooled, and the resulting protein solution was dialyzed against PBS (pH 7.4) and stored at −80° C.

tau isoform 2N4R [4] = target: T2, tau isoform 2N4R; assay: TEM of tau isoform 2N4R fibrils; format: biochemical; details: protein 60 μM, compound 600 μM (1:10), 24 hours at 37° C.
Description: as §1
To confirm the general anti-fibrillar effect of compound 10, transmission electron microscopy (TEM) was used as an orthogonal assay. After incubating recombinant proteins (at 60 μM) with 600 μM compound 10 for 24 hours at 37° C., TEM was utilized to detect fibril formation.^32 A volume of 10 μL was applied on a 400-mesh Formvar-carbon-coated copper grid (Electron Microscopy Sciences, Hatfield, PA). The grids were incubated for 1 minute and washed three times with distilled water. […]

tau isoform 2N4R [5] = target: T2, tau isoform 2N4R; assay: PICUP cross-linking assay of tau oligomer formation; format: biochemical; details: compound 50 μM; high molecular weight oligomers around 190 kDa
Description: as §1
PICUP is a technique in which oligomer formation is induced by cross-linking. To induce oligomerization by cross-linking, α-syn (from Rpeptide, LLC) and tau isoform 2N4R were diluted in 10 mM phosphate buffer (pH 7.4) to reach a final concentration of 10 μM. Different compounds were added to the protein solution at a final concentration of 50 μM, resulting in a molar ratio of 1:5. […]

[6] = system: M17D-TR/αS3K::YFP neuroblastoma cells; assay: α-syn inclusion formation in dox-inducible neuroblastoma cells; format: cell-based
Description: The dox-inducible neuroblastoma cell line M17D-TR/αS3K::YFP was used to evaluate the effect of compounds in preventing the formation of inclusion following induction with Dox. Dox-inducible neuroblastoma cells M17D-TR/αS-3K::YFP have been used previously. 96-well plates were used with cellular density of 30,000 cells per well. Compounds were added after 24 h and aS-3K::YFP transgene expression was induced […]. Induction was done by adding 1 μg per mL (final concentration) dox to culture media. Cells were incubated in the Incucyte Zoom 2000 platform (Essen Biosciences) and images (green, bright field) were taken continuously. Endpoint analysis of inclusion formation or growth was performed 48 h after induction (96 h after plating). The Incucyte processing definition ‘Inclusions’ was created as follows: Parameters, Fixed Threshold, Threshold (GCU) 50; Edge Split On, Edge Sensitivity 100; Cleanup, Hole Fill (μm^2): 10, Adjust Size (pixels): 0; Filters, Area (μm^2): max 50, Mean Intensity: min 60, Integrated Intensity: min 2000. […] As described previously for the evaluation of protein expression by SDS-PAGE and Western Blotting in the LiCor system, αS-specific monoclonal antibody 4B12 (Thermofisher, Waltham, MA; 1:1000) and a polyclonal antibody to GAPDH (Sigma-Aldrich, St. Louis, MO, G9545; 1:5000) were used.

alpha-synuclein (α-syn) = target: T3, alpha-synuclein (α-syn) (Homo sapiens, UniProt P37840); assay: Thioflavin T (ThT) fluorescence assay of α-syn fibril formation; format: biochemical; details: compound 100 μM
T3 construct: purchased rPeptide
Description: Thioflavin fluorescence assays. Thioflavin fluorescence assays were used to monitor fibril formation of recombinant α-syn, tau isoform 2N4R, treated with control DMSO and different compounds. Kinetics of α-syn fibrillization were performed using thioflavin T (ThT) as published previously.^32′ ^37 The fluorescence emission experiments were performed with the excitation and emission wavelengths set at 440 and 485 nm, respectively, with a Synergy HT multi-mode microplate reader (BioTek, Winooski, VT). Samples were measured in three replicates and the experiments were repeated three times using at least two different stock solutions. For each time point, arbitrary units of fluorescence were calculated from the mean values normalized against the maximum value in each completed assay. All results contained in FIG. 1 were presented as mean±SEM.
FIG. 1. Chemical structure, physicochemical descriptors, and the effect of compounds on alpha-synuclein (α-syn) aggregation measured as fluorescence intensity using ThT assay. TPSA, Log P, and Log D were obtained with SwissADME. BBB and pKa were obtained from the Blood-Brain Barrier Prediction Server (https://www.cbligand.org/BBB/) and Chemaxon, respectively. CNS MPO scores were assessed as published previously, The ThT (%) represent the maximum fluorescence intensity obtained at the plateau phase of the kinetics of fibrillization using 6.25 μM of α-syn. Compounds were tested at 100 μM (molar ratio 1:16). BBB, blood-brain barrier; C log D, calculated distribution coefficient at 7.4; C log P, calculated partition coefficient; CNS MPO, Central Nervous System Multi Parameter Optimization; HBA, Hydrogen Bond Acceptor; HBD, Hydrogen Bond Donor; LR5, Lipinski's rule of five; pKa, negative log of acid dissociation constant; ThT, Thioflavin T; TPSA, Topological polar surface area.

c1cc(Oc2ncnc(Oc3cccc4[nH]ccc34)n2)c2cc[nH]c2c1 [Compound 7, 4-{[4-(1H-indol-4-yloxy)-1,3,5-triazin-2-yl]oxy}-1H-indole]
α-syn oligomer formation (PICUP, in words) (α-syn [1]): did not reduce the formation of α-syn and tau oligomers
α-syn fibril ultrastructure (TEM) (α-syn [2]): packets of fine fibrils with a few spherical structures encountered on the grid
tau isoform 2N4R fibrillization (in words) (tau isoform 2N4R [3]): failed to reduce tau fibril formation
tau isoform 2N4R fibril ultrastructure (TEM) (tau isoform 2N4R [4]): fibrils surrounded by debris admixed with disrupted fibrils
tau oligomer formation (PICUP, in words) (tau isoform 2N4R [5]): did not reduce the formation of α-syn and tau oligomers
α-syn expression levels (Western blot) ([6]; compound 10 μM): reduced
α-syn expression levels (Western blot) ([6]; compound 2.5 and 20 μM): reduced
α-syn inclusion formation (punctate YFP signal, in words) ([6]; compound 7: 2.5 to 20 μM, compound 10: 2.5 to 40 μM, readout 96 h after plating, vs 0.1% DMSO): very minimal changes in the numbers of inclusion
inhibition of α-syn aggregation / fibril formation (in words) (alpha-synuclein (α-syn); ThT assay): nonexistent anti-fibrillar activity; also recorded: weak effect on fibril formation

Clc1nc(Nc2ccc3cc[nH]c3c2)nc(Nc2ccc3cc[nH]c3c2)n1 [Compound 24]
ThT fluorescence intensity (FI), maximum at the plateau phase of α-syn fibrillization (alpha-synuclein (α-syn); α-syn 6.25 μM (molar ratio 1:16), compared with DMSO control, mean±SEM, 100 µM): −0.3±0.5%

c1cc(Nc2nc(Nc3cccc4[nH]ccc34)nc(Nc3cccc4[nH]ccc34)n2)c2cc[nH]c2c1 [Compound 25]
α-syn fibril ultrastructure (TEM) (α-syn [2]): rare short fibrils
tau isoform 2N4R fibril ultrastructure (TEM) (tau isoform 2N4R [4]): medium size needle-shaped fibrils
activity at 100 µM (alpha-synuclein (α-syn); α-syn 6.25 μM (molar ratio 1:16), compared with DMSO control, mean±SEM, read-out: ThT fluorescence intensity (FI), maximum at the plateau phase of α-syn fibrillization): 21.5 ± 7.9%
